The record followed here is patent US20240181125A1, “COMPOSITIONS AND METHODS FOR SCARLESS WOUND HEALING IN DIABETES” (Washington University, priority 2022, published 2024).

“Also recorded” adds a separate entry of the source. Bridge positions count the residues as written; N and C are the ends. Peptide text beside a SMILES is read from it. * marks the point of attachment. FITC = O=C1OC2(c3ccc(O)cc3Oc3cc(O)ccc32)c2ccc(NC(=S)*)cc21

One data set relates to HDF. Nature of the data set: Cytotoxicity of PTβR2I on dermal fibroblasts. Format: cell-based, human. On the set-up: dose or concentration left out as unconfirmed. As to conditions: 1 to 100.
The subject of another data set is wounds of db/+ mice. Briefly: Wound assay on non-diabetic db/+ mice. The conditions noted are these: mouse, in vivo. Here is the method:
The same wound assay was performed on db/+ mice and monitored the wound closure for eight days (FIG. 11A). The No-treatment, Gel, and PTβR2I/Gel groups all had similar healing rates, with wound sizes less than 10% of the original after 8 days (FIG. 11B and C). To delineate the mechanism, in vitro immunoblotting was performed on dermal fibroblasts under normal glucose conditions that mimicked the microenvironment of db/+ mice (FIG. 11D).

Data set [1] has as its system diabetic wounds of db/db mice. Nature of the data set: Example 5 wound dressings on full-thickness excisional diabetic wounds. Format: in vivo. The protocol:
After three days post-wound assay on db/db mice, the wounded tissues were collected and lysed. The protein concentrations were quantified by Bradford assay. The samples were tested using a Proteome Profiler Mouse Angiogenesis Array kit (R&D Systems) and a Mouse Cytokine Array kit (R&D Systems). The intensities of the dots on the membranes in the kits were quantified using Image Lab software. Eight-week-old, female db/db mice were used. Carprofen tablets (1/4 tablet per mouse) were given orally 48 hours before surgery and continued for seven days after the surgery as an analgesic. One day before surgery, the blood glucose levels of the mice were tested with a glucometer to confirm they were above 300 mg/dL. The mice were anesthetized by isoflurane inhalation, and the dorsal surface was thoroughly shaved. Then a 5-mm diameter biopsy punch (VWR) was used to create two symmetric full-thickness wounds on the back of each mouse. Next, 100 μL of liquid wound dressing, with or without 50 μg/mL of PTβ[…], was applied topically to the wound sites. The mice were observed every other day, and digital photographs of the wounds, with a ruler at the side, were acquired by a digital camera. Wound sizes were calculated using Image J. For in vitro tests, protein lysates were collected from HDFs. Pre-cooled cell scrapers were used to detach the cells, and the cells were re-suspended in RIPA lysis buffer with the inhibitor cocktail. For in vivo tests, wound skin tissues were washed three times with pre-cooled DPBS, dissected into small pieces, and re-suspended in RIPA lysis buffer containing protease and phosphatase inhibitors. […] After centrifugation at 12,000 g for 20 min, the supernatants were collected, and protein concentrations were measured using a Bradford protein assay kit (Bio-rad). […] Immunoblots were then washed with PBST and detected with a WesternBright HRP substrate detection kit (Advansta). […] The epidermal thickness was calculated from the MTS images in the wounded region. […] Images were acquired by Olympus confocal microscope and analyzed using ImageJ.

The test system of the next data set is HAECs. Briefly: Endothelial cell lumen formation in 3D collagen gel. Format: cell-based, human. The conditions noted are these: high glucose and TGFβ1. Here is the method:
A 3D collagen gel model was used to evaluate endothelial cell lumen formation under high glucose and TGFβ1 conditions. Briefly, the collagen gel was formed by mixing 4 mg/ml of rat tail type I collagen solution (Life Technologies), FBS, DMEM, and NaOH. Then 500 μL of the mixture was transferred to a 48-well plate and placed in a 37° C. incubator for 30 minutes to allow gelation. HAECs were then seeded into the collagen gel at a density of 2×10^4 cells/well. TGFβ1 (10 ng/ml) or TGFβ1 (10 ng/ml)/PTβR2I (10 μg/mL) was then added. After three days of culturing, cells were stained with F-actin (Abcam, ab176753) and DAPI (Millipore-Sigma). The constructs were imaged by
Olympus FV1200 confocal microscopy with z-stack mode. The lumen density was calculated from the images.

Another data set concerns HDFs. Nature of the data set: 2D scratch migration assay, HDF. Format: cell-based, human. The conditions noted are these: high glucose and TGFβ1, 72 hours. Here is the method:
HDFs, HaCaTs, and HAECs were cultured in 6-well plates using serum-free high glucose (4.5 g/L) basal medium with 1% P/S. After the cells reached confluency, a 200-μL pipet tip was used to scrape the cell monolayer. Then 3 mL of medium containing TGFβ1 (10 ng/ml) or TGFβ1 (10 ng/ml)/PTβR2I (10 μg/mL) was added to the wells. The cells were imaged at predetermined time points using a bright-field microscope. The distances between the scratch walls were measured using ImageJ to calculate the migration ratio

As to `CC(C)C[C@@H]1NC(=O)CNC(=O)[C@@H](NC(=O)[C@@H](N)CCC(=O)O)CSSC[C@@H](C(=O)N[C@@H](CCCCNC(=S)Nc2ccc3c(c2)C(=O)OC32c3ccc(O)cc3Oc3cc(O)ccc32)C(=O)O)NC(=O)[C@H](CC(C)C)NC(=O)[C@H](CCCNC(=N)N)NC(=O)[C@H](Cc2c[nH]c3ccccc23)NC(=O)[C@H](C(C)C)NC(=O)[C@H](CCCNC(=N)N)NC(=O)[C@H](CC(=O)O)NC(=O)[C@@H]2CCCN2C(=O)[C@H](CCCNC(=N)N)NC(=O)CNC(=O)[C@H](C(C)C)NC(=O)[C@@H]2CCCN2C(=O)[C@H](CC(C)C)NC1=O` [PTβR2I, ECGLLPVGRPDRVWRLCK-FITC] (H-ECGLLPVGRPDRVWRLCK(FITC)-OH; disulfide 2-17; N-terminus and C-terminus assumed), the cell viability entry in the data set with HDF is “no decrease in viability”. The “efficacy on db/+ mice” value in the data set on wounds of db/+ mice is “not effective”. Also, the “expression of p-Smad2/3 in wounded skin” value in data set [1] (day 3) was “downregulated”. Also, in data set [1] (day 8), the “expressions of p-Smad2/3 and α-SMA in wounded skin” value was “without compromising”. Also, the “expression of p-p38 in wounded skin” value in data set [1] (days 3 and 8, vs Gel group) is reported as “downregulated; also recorded: continued to downregulate”. In the data set on HAECs, the lumen density result is on record as “significantly increased the lumen density”. Further, in the data set on HDFs, the migration entry is “significantly higher number of cells had migrated”.
